One assay has as its system veines saphènes de lapin. The assay is described as follows: contraction of isolated rabbit saphenous veins produced by KCl (40 mM). The settings on record: for EC50: potentiation of KCl (40 mM) contractions of rabbit saphenous veins, read-out: DE50 (the source's name). From the text:
L'effet contractile est mesuré in vitro : • par la force de contraction développée par des anneaux vasculaires quiescents ou stimulés (soit électriquement soit par des agents physiologiques) et maintenus dans des conditions isométriques, • par la pression développée par des réseaux vasculaires perfusés à débit constant.
Les composés de formule (1) et leurs sels éventuels augmentent la contraction des veines saphènes animales produite par la noradrénaline et la dépolarisation (solution hyperpotassique) sans affecter, dans la majorité des cas, les réponses contractiles artérielles. A titre illustratif, les composés des exemples 3, 5, 8, 11, 13, 15, 31 (10 nM à […]) augmentent de plus de 40 % (DE50 ± 0,3 microM) les contractions des veines saphènes de lapin produites par le KCl (40 mM).

The nature of assay [1]: free radical scavenging with DPPH as stable free radical. The settings on record: DPPH model. From the text:
L'effet "piégeur de radicaux libres" global est étudié in vitro par un modèle utilisant le 1,1-diphényl-2-picrylhydrazyl (DPPH) comme radical libre stable, méthode dérivée de celle décrite par Lamaison et col., Plantes Médic. et Phytothérapie, XXII, 1988, 231-234.
In general terms: The DPPH test is a chemical assay of radical scavenging.

Another assay relates to rat. The assay is described as follows: carrageenan-induced pleurisy in the rat. The settings on record: twice i.p. 5 mg/kg, 6 hours after carrageenan injection. It is filed as in vivo. Here is the method: L'activité antiinflammatoire est démontrée par la mesure de l'inhibition de l'oedème et de la migration leucocytaire après induction d'une pleurésie chez le rat par injection de carragénine dans la cavité pleurale (Almeida et col., J. Pharmacol. Exp. Therap., 1980, 214 : 74).
A titre illustratif, les composés des exemples 21, 23 administrés deux fois en i.p. à la dose de 5 mg/kg inhibent l'oedème et la migration leucocytaire dans la cavité pleurale, 6 heures après injection de carragénine dans le modèle de la pleurésie chez le rat.

The test system of assay [2] is hyperperméabilité vasculaire induite par le zymosan. The assay is described as follows: vascular hyperpermeability induced by zymosan, in vivo. The settings on record: 2 and 4 hours after per os 1 à 20 mg/kg. From the text: La perméabilité vasculaire est étudiée in vivo et in vitro par la mesure de l'extravasation d'albumine ou de colorant liant l'albumine (Bleu Evans). In vivo, l'hyperperméabilité est induite par l'injection d'une solution d'histamine, de bradykinine ou de zymosan. Les modèles in vitro permettent de réaliser des hyperpressions (sur un territoire vasculaire isolé) et/ou des réactions vasculaires inflammatoires.
A titre illustratif, les composés des exemples 28, 27, 25 diminuent l'hyperperméabilité vasculaire induite par le zymosan lorsque celle-ci est mesurée 2 et 4 heures après administration per os de 1 à 20 mg/kg.

Consider `Nc1cccc(NC(=O)NN=c2c(=O)c3ccccc3c2=O)c1` [exemple 3, 2-[(3-Aminophenyl)aminocarbonylhydrazono]-2.3-dihydro1.3-dioxo-1H-indène], for which, in the assay on veines saphènes de lapin, the “augmentation des contractions des veines saphènes de lapin produites par le KCl (40 mM)” value was above 40% and the EC50 is around 300 nM.

`Nc1ccc(NC(=O)NN=c2c(=O)c3ccccc3c2=O)cc1` [exemple 5, 2-[(4-Aminophenyl)aminocarbonylhydrazono]-2.3-dihydro-1.3-dioxo-1H-indène]: in the assay on veines saphènes de lapin, the “augmentation des contractions des veines saphènes de lapin produites par le KCl (40 mM)” value is given as above 40% and the EC50 was around 300 nM.

For `O=C(NN=c1c(=O)c2ccccc2c1=O)Nc1ccccc1[N+](=O)[O-]` [exemple 7, 2.3-Dihydro-1.3-dioxo-2-[(2-nitrophenyl)aminocarbonylhydrazono]-1H-indène], the effet antiradicalaire result in assay [1] was “présentent un effet antiradicalaire”.

For the compound `O=C(NN=c1c(=O)c2ccccc2c1=O)Nc1cccc([N+](=O)[O-])c1` [exemple 8, 2.3-Dihydro-1.3-dioxo-2-[(3-nitrophenyl)aminocarbonylhydrazono]-1H-indène], in the assay with veines saphènes de lapin, the “augmentation des contractions des veines saphènes de lapin produites par le KCl (40 mM)” value is given as above 40% and the EC50 is around 300 nM.

With `O=C(NN=c1c(=O)c2ccccc2c1=O)Nc1ccc([N+](=O)[O-])cc1` [exemple 9, 2.3-Dihydro-1.3-dioxo-2-(4-nitrophenylaminocarbonylhydrazono)-1H-indène], the effet antiradicalaire entry in assay [1] is “présentent un effet antiradicalaire”.

For `O=C(NN=c1c(=O)c2ccccc2c1=O)Nc1ccccn1` [exemple 11, 2.3-Dihydro-1.3-dioxo-2-[(2-pyridyl)aminocarbonylhydrazono]-1H-indène, chlorhydrate], in the assay on veines saphènes de lapin, the “augmentation des contractions des veines saphènes de lapin produites par le KCl (40 mM)” value is on record as above 40% and the EC50 was around 300 nM.

For the compound `O=C(NN=c1c(=O)c2ccccc2c1=O)Nc1cccnc1` [exemple 13, 2.3-Dihydro-1.3-dioxo-2-[(3-pyridyl)aminocarbonylhydrazono]-1H-indène], in the assay with veines saphènes de lapin, the “augmentation des contractions des veines saphènes de lapin produites par le KCl (40 mM)” value is above 40% and the EC50 is around 300 nM.

Turning to `O=C(NN=c1c(=O)c2cccc(F)c2c1=O)Nc1ccccc1` [exemple 21, 2.3-Dihydro-1.3-dioxo-4-fluoro-2-(phenylaminocarbonylhydrazono)-1H-indène], in the assay with rat, the “migration leucocytaire dans la cavité pleurale” value is recorded as “inhibent” and the oedème entry is “inhibent”.

For the compound `O=C(NN=c1c(=O)c2cccc(F)c2c1=O)Nc1cccnc1` [exemple 23, 2.3-Dihydro-1.3-dioxo-4-fluoro-2-[(3-pyridyl)aminocarbonylhydrazono]-1H-indène], in the assay on rat, the “migration leucocytaire dans la cavité pleurale” value was “inhibent” and the oedème entry was “inhibent”.

For `O=C(NN=c1c(=O)c2cccc(F)c2c1=O)Nc1ccncc1` [exemple 25, 2.3-Dihydro-1.3-dioxo-4-fluoro-2-[(4-pyridyl)aminocarbonylhydrazono]-1H-indène], in assay [2], the “hyperperméabilité vasculaire induite par le zymosan” value is reported as “diminuent”.

With `O=C(NN=c1c(=O)c2ccc(F)cc2c1=O)Nc1ccccc1` [exemple 27, 2.3-Dihydro-1.3-dioxo-5-fluoro-2-(phenylaminocarbonylhydrazono)-1H-indène], the “hyperperméabilité vasculaire induite par le zymosan” value in assay [2] is reported as “diminuent”.

Regarding `O=C(NN=c1c(=O)c2ccc(F)cc2c1=O)Nc1ccc(F)cc1` [exemple 28], in assay [2], the “hyperperméabilité vasculaire induite par le zymosan” value is “diminuent”.

In the case of `O=C(NN=c1c(=O)c2ccc(F)cc2c1=O)Nc1ccncc1` [exemple 31, 2.3-Dihydro-1.3-dioxo-5-fluoro-2-[(4-pyridyl)aminocarbonylhydrazono]-1H-indène], in the assay with veines saphènes de lapin, the “augmentation des contractions des veines saphènes de lapin produites par le KCl (40 mM)” value is recorded as above 40% and the EC50 is around 300 nM.
